Assay results as given in ChEMBL document CHEMBL1152652, “Bioorganic synthesis of end-capped anti-HIV peptides by simultaneous cyanocysteine-mediated cleavages of recombinant proteins” (Bioorg Med Chem, 2009).
Where a SMILES comes first, the peptide text is derived from it. The star is where a group is joined. NH(2-oxoazepan-3S-yl) = O=C1NCCCC[C@@H]1N*; Aspartimide = O=C1C[C@H](N*)C(=O)N1; X1 = N=C1N[C@H](C(=O)*)CS1

How the values were obtained:
[1] = test system: Human immunodeficiency virus 1; test: Antiviral activity against HIV1 NL4-3 infected in human HeLa cells assessed as inhibition of replication after 48 hrs by MAGI assay; format: functional, organism-based; details: Human immunodeficiency virus 1, NL4-3, HeLa
HeLa = test: Cytotoxicity against human HeLa cells after 48 hrs up to 10 uM by MAGI assay; format: cell-based
Serum = test: Metabolic stability in 50% mouse serum assessed as degradation after 24 hrs; format: ADME, cell-free

Compound | EC50 [1] | Activity (HeLa) | Activity (Serum)
CC[C@H](C)[C@H](NC(=O)[C@H](CC(C)C)NC(=O)[C@H](CCC(=O)O)NC(=O)[C@H](CCC(=O)O)NC(=O)[C@@H](NC(=O)[C@H](CCCCN)NC(=O)[C@H](CCCCN)NC(=O)[C@@H](NC(=O)[C@H](Cc1ccc(O)cc1)NC(=O)[C@H](CCC(=O)O)NC(=O)[C@H](CCC(=O)O)NC(=O)[C@@H](NC(=O)[C@H](CCCCN)NC(=O)[C@H](CCCNC(=N)N)NC(=O)[C@H](CC(=O)O)NC(=O)[C@H](Cc1c[nH]c2ccccc12)NC(=O)[C@H](CCC(=O)O)NC(=O)[C@H](CCSC)NC(=O)[C@H](Cc1c[nH]c2ccccc12)NC(=O)[C@@H]1CSC(=N)N1)[C@@H](C)CC)[C@@H](C)O)[C@@H](C)CC)C(=O)N[C@@H](CCCCN)C(=O)N[C@@H](CCCCN)C(=O)N[C@@H](CO)C(=O)N[C@@H](CCC(N)=O)C(=O)N[C@@H](CCC(=O)O)C(=O)N[C@@H](CCC(N)=O)C(=O)N[C@@H](CCC(N)=O)C(=O)N[C@@H](CCC(=O)O)C(=O)N[C@@H](CCCCN)C(=O)N[C@@H](CC(N)=O)C(=O)N[C@@H](CCC(=O)O)C(=O)N[C@@H](CCCCN)C(=O)N[C@@H](CCC(=O)O)C(=O)N[C@@H](CC(C)C)C(=O)N[C@@H](CCCCN)C(=O)N[C@H]1CCCCNC1=O (X1-WMEWDRKIEEYTKKIEELIKKSQEQQEKNEKELK-{NH(2-oxoazepan-3S-yl)}) | 0.58 nM | Non-toxic | Stable
H-WMEWDRKIEEYTKKIEELIKKSQEQQEKNEKELK-OH | 0.68 nM | – | –
CC[C@H](C)[C@H](NC(=O)[C@H](CC(C)C)NC(=O)[C@H](CCC(=O)O)NC(=O)[C@H](CCC(=O)O)NC(=O)[C@@H](NC(=O)[C@H](CCCCN)NC(=O)[C@H](CCCCN)NC(=O)[C@@H](NC(=O)[C@H](Cc1ccc(O)cc1)NC(=O)[C@H](CCC(=O)O)NC(=O)[C@H](CCC(=O)O)NC(=O)[C@@H](NC(=O)[C@H](CCCCN)NC(=O)[C@H](CCCNC(=N)N)NC(=O)[C@H](CC(=O)O)NC(=O)[C@H](Cc1c[nH]c2ccccc12)NC(=O)[C@H](CCC(=O)O)NC(=O)[C@H](CCSC)NC(=O)[C@H](Cc1c[nH]c2ccccc12)NC(=O)[C@@H]1CSC(=N)N1)[C@@H](C)CC)[C@@H](C)O)[C@@H](C)CC)C(=O)N[C@@H](CCCCN)C(=O)N[C@@H](CCCCN)C(=O)N[C@@H](CO)C(=O)N[C@@H](CCC(N)=O)C(=O)N[C@@H](CCC(=O)O)C(=O)N[C@@H](CCC(N)=O)C(=O)N[C@@H](CCC(N)=O)C(=O)N[C@@H](CCC(=O)O)C(=O)N[C@@H](CCCCN)C(=O)N[C@@H](CC(N)=O)C(=O)N[C@@H](CCC(=O)O)C(=O)N[C@@H](CCCCN)C(=O)N[C@@H](CCC(=O)O)C(=O)N[C@@H](CC(C)C)C(=O)N[C@@H](CCCCN)C(=O)N[C@H]1CC(=O)NC1=O (X1-WMEWDRKIEEYTKKIEELIKKSQEQQEKNEKELK-Aspartimide) | 0.48 nM | Non-toxic | Unstable
Ac-WMEWDRKIEEYTKKIEELIKKSQEQQEKNEKELK-NH2 | 0.6 nM | – | –
